Assay [1] addresses T1, Human DYRK1A (Homo sapiens, UniProt Q13627).
T1 construct: purchased Invitrogen PV3997
Nature of the assay: DYRK1A Kinase TR-FRET (IMAP-Tb) Assay. It counts as biochemical. To be noted: for inhibition at 10 µM: % inhibition at 10 μM test compound concentration, where IC50 not determined, read-out: % inhibition DYRK1A (printed in the Enzyme IC50 DYRK1A column); for IC50: TR-FRET (IMAP-Tb), ATP 70 μM, 37° C., 60 minutes, average of multiple runs, read-out: Enzyme IC50 (μM) DYRK1A. An excerpt: DYRK1A Kinase TR-FRET (IMAP-Tb) Assay
The kinase TR-FRET (IMAP-Tb) assay uses a fluorescence labeled substrate peptide in the kinase reaction. Upon phosphorylation by the kinase, phosphopeptide is produced, which will be detected by the binding solution provided in IMAP TR-FRET binding kit. After the completion of the kinase reaction, the reaction will be stopped by adding the binding solution containing terbium tracer. This tracer is immobilized on the surface of the IMAP beads, which also contain metal ions on the beads that bind to the phospho-groups of the products. Thus the phosphorylated product of the reaction can enter into close proximity to the tracer, producing resonance energy transfer. Due to the long lifetime of terbium (Tb) fluorescence the detection can be run in time resolved mode, which virtually eliminates fluorescence interference from assay components or compounds.
The TR-FRET signal measurement from this assay, given as an IC50 measurement, is a measure of a test compound's ability to interfere with the phosphorylation of the peptide substrate, that is it inhibits the phosphorylation of the substrate peptide by DYRK1A, and is thus a measure of the test compound's ability to inhibit the activity of DYRK1A.
• 1. Human DYRK1A: from Invitrogen. Part #PV3997 • 2. Substrate Peptide: […] • 3. IMAP TR-FRET IPP Explorer Kit: from Molecular Devices. Part #R8157 • 4. Kinase Assay Buffer (KAB): 10 mM HEPES pH 7.0, 50 mM NaCl, 5 mM MgCl2, 1 mM DTT, 1 mM NaVO4, 200 μg/mL BSA (0.02%) • 5. Assay Plate: Remp polypropylene clear 384-well microplate. […] Detection Plate: Costa black 384-well microplate. […] Transfer 1.5 μL of 20× compound solution to each well of an assay plate. • 2. Add to each well 22.5 μL of KAB Buffer. • 3. Add to each well 3 μL of the solution of DYRK1A and ATP. […] Add to each well 3 μL of the substrate peptide. The assay concentration is 1.0 μM • 5. Incubate the assay plates at 37° C. for 60 minutes. • 6. Add 18 μL of Detection Solution (1:800 diluted Progress bead stock, 1:400 diluted Tb stock, 80% Buffer A, and 20% Buffer B) into each well of detection plates. • 7. Transfer 6 μL of assay solution from the assay plate to the detection plate. • 8. Shake detection plates for 30 minutes. • 9. Read plates in Envision with wavelength set at excitation 340 nm for Tb, emission 490 nm, and […].
(Time-resolved FRET reads energy transfer from a long-lived donor to a nearby acceptor.)

For assay [2], the target named is T2, Human DYRK1B (Homo sapiens, UniProt Q9Y463).
T2 construct: purchased Invitrogen PR8350B (former PV4649)
Nature of the assay: DYRK1B Kinase TR-FRET (IMAP-Tb) Assay. It counts as biochemical. To be noted: for IC50: TR-FRET (IMAP-Tb), ATP 70 μM, 37° C., 60 minutes, average of multiple runs, read-out: Enzyme IC50 (μM) DYRK1B; for inhibition at 10 µM: % inhibition at 10 μM test compound concentration, where IC50 not determined. From the text: DYRK1B Kinase TR-FRET (IMAP-Tb) Assay The kinase TR-FRET (IMAP-Tb) assay uses a fluorescence labeled substrate peptide in the kinase reaction. Upon phosphorylation by the kinase, phosphopeptide is produced, which will be detected by the binding solution provided in IMAP TR-FRET binding kit. After the completion of the kinase reaction, the reaction will be stopped by adding the binding solution containing terbium tracer. This tracer is immobilized on the surface of the IMAP beads, which also contain metal ions on the beads that bind to the phospho-groups of the products. Thus the phosphorylated product of the reaction can enter into close proximity to the tracer, producing resonance energy transfer. Due to the long lifetime of terbium (Tb) fluorescence the detection can be run in time resolved mode, which virtually eliminates fluorescence interference from assay components or compounds. The TR-FRET signal measurement from this assay, given as an IC50 measurement, is a measure of a test compound's ability to interfere with the phosphorylation of the peptide substrate, that is it inhibits the phosphorylation of the substrate peptide by DYRK1B, and is thus a measure of the test compound's ability to inhibit the activity of DYRK1B. […] Human DYRK1B: from Invitrogen. Part #PR8350B (former PV4649) • 2. Substrate Peptide: in-house synthesized: RRRFRPASPLRGPPK • 3. IMAP TR-FRET IPP Explorer Kit: from Molecular Devices. Part #R8157 • 4. Kinase Assay Buffer (KAB): 10 mM HEPES pH 7.0, 50 mM NaCl, 5 mM MgCl2, 1 mM DTT, 1 mM NaVO4, 200 μg/mL BSA (0.02%) • 5. Assay Plate: Remp polypropylene clear 384-well microplate. Cat#23490-102 • 6. Detection Plate: Costa black 384-well microplate. Cat #3710 Assay Procedure: This assay was performed as follows: • 1. Transfer 1.5 μL of 20× compound solution to each well of an assay plate. • 2. Add to each well 22.5 μL of KAB Buffer. • 3. Add to each well 3 μL of the solution of DYRK1B and ATP. […] Add to each well 3 μL of the substrate peptide. The assay concentration is 1.0 μM • 5. Incubate the assay plates at 37° C. for 60 minutes. • 6. Add 18 μL of Detection Solution (1:800 diluted Progress bead stock, 1:400 diluted Tb stock, 80% Buffer A, and 20% Buffer B) into each well of detection plates. • 7. Transfer 6 μL of assay solution from the assay plate to the detection plate. • 8. Shake detection plates for 30 minutes. • 9. Read plates in Envision with wavelength set at excitation 340 nm for Tb, emission 490 nm, and […] 520 nm. • 10. Calculation: TR-FRET Signal=(Reading at […]/Reading at 490 nM)×2000000

The values below come from patent US20120184562A1, “1,6- AND 1,8-NAPHTHYRIDINES” (priority 2011, published 2012).

Each structure is given as a SMILES string.

T2 sequence (Q9Y463 whole entry): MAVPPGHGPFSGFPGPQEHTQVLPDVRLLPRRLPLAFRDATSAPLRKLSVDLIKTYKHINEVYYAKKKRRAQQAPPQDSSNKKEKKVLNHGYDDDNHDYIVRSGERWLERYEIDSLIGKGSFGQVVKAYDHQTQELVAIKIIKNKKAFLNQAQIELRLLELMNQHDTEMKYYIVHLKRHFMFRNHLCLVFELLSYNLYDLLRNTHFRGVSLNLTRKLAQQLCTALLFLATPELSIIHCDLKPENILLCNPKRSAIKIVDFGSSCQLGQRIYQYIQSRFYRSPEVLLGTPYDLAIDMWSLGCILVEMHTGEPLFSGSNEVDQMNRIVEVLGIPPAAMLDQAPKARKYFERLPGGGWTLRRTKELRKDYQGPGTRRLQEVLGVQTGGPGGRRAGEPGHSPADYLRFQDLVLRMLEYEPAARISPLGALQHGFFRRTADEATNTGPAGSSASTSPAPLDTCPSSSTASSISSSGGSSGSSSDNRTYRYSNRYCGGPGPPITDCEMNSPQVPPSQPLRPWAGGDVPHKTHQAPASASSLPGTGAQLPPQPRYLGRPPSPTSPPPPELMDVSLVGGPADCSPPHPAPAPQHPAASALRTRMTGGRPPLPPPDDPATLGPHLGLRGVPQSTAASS

Broadly, the inhibition is the percentage by which the read-out fell short of the control. In general, IC50 refers to the midpoint of a concentration-inhibition curve. Take `COC(=O)c1ccc(C)c(NC(=O)c2cc3cnc(OC)cc3[nH]c2=O)c1` [Example 28, 3-[(7-Methoxy-2-oxo-1,2-dihydro-[1,6]naphthyridine-3-carbonyl)-amino]-4-methyl-benzoic acid methyl ester]: the inhibition at 10 µM in assay [1] was determined as 24%. In addition, the IC50 in assay [2] is above 10 µM. Regarding `COc1cc2[nH]c(=O)c(C(=O)Nc3cc(C(=O)NCc4ccccc4)ccc3Cl)cc2cn1` [Example 32, 7-Methoxy-2-oxo-1,2-dihydro-[1,6]naphthyridine-3-carboxylic acid (5-benzylcarbamoyl-2-chloro-phenyl)-amide], the inhibition at 10 µM is 23% in assay [1] and 19% in assay [2].

For the compound `COc1cc2[nH]c(=O)c(C(=O)Nc3cc(C(=O)NCc4ccccc4Cl)ccc3C)cc2cn1` [Example 34, 7-Methoxy-2-oxo-1,2-dihydro-[1,6]naphthyridine-3-carboxylic acid [5-(2-chloro-benzylcarbamoyl)-2-methyl-phenyl]-amide], the figures for the inhibition at 10 µM in assay [1] and in assay [2] were 45% and 28%, respectively.

`COc1cc2[nH]c(=O)c(C(=O)Nc3cc(C(=O)NCc4cccc(Cl)c4)ccc3C)cc2cn1` [Example 35, 7-Methoxy-2-oxo-1,2-dihydro-[1,6]naphthyridine-3-carboxylic acid [5-(3-chloro-benzylcarbamoyl)-2-methyl-phenyl]-amide]: the inhibition at 10 µM in assay [1] was 45%; in assay [2], 35%. `COc1cc2[nH]c(=O)c(C(=O)Nc3cc(C(=O)NCc4ccc(Cl)cc4)ccc3C)cc2cn1` [Example 36, 7-Methoxy-2-oxo-1,2-dihydro-[1,6]naphthyridine-3-carboxylic acid [5-(4-chloro-benzylcarbamoyl)-2-methyl-phenyl]-amide]: the IC50 in assay [1] and in assay [2] was above 10 µM throughout.

On to `COc1cc2[nH]c(=O)c(C(=O)Nc3cc(C(=O)NCc4ccccc4Cl)ccc3Cl)cc2cn1` [Example 39, 7-Methoxy-2-oxo-1,2-dihydro-[1,6]naphthyridine-3-carboxylic acid [2-chloro-5-(2-chloro-benzylcarbamoyl)-phenyl]-amide], for which the IC50 stood at 0.63 µM in assay [1] and 7.22 µM in assay [2]. Take `COc1cc2[nH]c(=O)c(C(=O)Nc3cc(C(=O)NCc4cccc(Cl)c4)ccc3Cl)cc2cn1` [Example 40, 7-Methoxy-2-oxo-1,2-dihydro-[1,6]naphthyridine-3-carboxylic acid [2-chloro-5-(3-chloro-benzylcarbamoyl)-phenyl]-amide]: in assay [1], the IC50 is 0.051 µM.

For the compound `COc1cc2[nH]c(=O)c(C(=O)Nc3cc(C(=O)NCc4ccc(Cl)cc4)ccc3Cl)cc2cn1` [Example 41, 7-Methoxy-2-oxo-1,2-dihydro-[1,6]naphthyridine-3-carboxylic acid [2-chloro-5-(4-chloro-benzylcarbamoyl)-phenyl]-amide], the IC50 in assay [1] and in assay [2] was above 10 µM each time.

For `COc1cc2[nH]c(=O)c(C(=O)Nc3cc(C(=O)NCc4cccs4)ccc3Cl)cc2cn1` [Example 42, 7-Methoxy-2-oxo-1,2-dihydro-[1,6]naphthyridine-3-carboxylic acid {2-chloro-5-[(thiophen-2-ylmethyl)-carbamoyl]-phenyl}-amide], the inhibition at 10 µM in assay [1] is 27%; in assay [2], 41%. For the compound `COC(=O)c1ccc(C)c(NC(=O)c2cc3cnc(N4CCN(C)CC4)cc3[nH]c2=O)c1` [Example 74, 4-Methyl-3-{[7-(4-methyl-piperazin-1-yl)-2-oxo-1,2-dihydro-[1,6]naphthyridine-3-carbonyl]-amino}-benzoic acid methyl ester], the IC50 in assay [1] worked out at 0.96 µM; in assay [2] it was 3.55 µM. Regarding `COC(=O)c1ccc(C)c(NC(=O)c2cc3ccc(N4CCN(C)CC4)nc3[nH]c2=O)c1` [Example 87, 4-Methyl-3-{[7-(4-methyl-piperazin-1-yl)-2-oxo-1,2-dihydro-[1,8]naphthyridine-3-carbonyl]-amino}-benzoic acid methyl ester], the IC50 in assay [1] is 0.915 µM; in assay [2], 1.31 µM. For `COC(=O)c1ccc(C)c(NC(=O)c2cc3ccc(OC)nc3[nH]c2=O)c1` [Example 89, 3-[(7-Methoxy-2-oxo-1,2-dihydro-[1,8]naphthyridine-3-carbonyl)-amino]-4-methyl-benzoic acid methyl ester], the IC50 in assay [1] stood at 0.125 µM. For the same compound, the inhibition at 10 µM in assay [2] worked out at 47%. In the case of `COc1ccc2cc(C(=O)Nc3cc(C(=O)NCc4ccccc4)ccc3Cl)c(=O)[nH]c2n1` [Example 94, N-(5-(Benzylcarbamoyl)-2-chlorophenyl)-7-methoxy-2-oxo-1,2-dihydro-1,8-naphthyridine-3-carboxamide], the values for the IC50 in assay [1] and in assay [2] were 0.05 µM and 0.079 µM, respectively. For `COc1ccc2cc(C(=O)Nc3cc(C(=O)NCc4ccccc4)ccc3C)c(=O)[nH]c2n1` [Example 98, N-(5-(Benzylcarbamoyl)-2-methylphenyl)-7-methoxy-2-oxo-1,2-dihydro-1,8-naphthyridine-3-carboxamide], in that order: 0.79 µM and 0.69 µM.

For the compound `COc1ccc2cc(C(=O)Nc3cc(C(=O)NC(CCN)c4ccccc4)ccc3C)c(=O)[nH]c2n1` (centres unmarked) [Example 100, N-(5-(3-Amino-1-phenylpropylcarbamoyl)-2-methylphenyl)-7-methoxy-2-oxo-1,2-dihydro-1,8-naphthyridine-3-carboxamide], the IC50 in assay [1] came to 0.0162 µM; in assay [2], 0.0158 µM.
